Values after ≈ are worked out from the molar mass of the structure shown. Active and inactive are the calls of the source. The rule behind the calls is not given here. Bridge positions count the residues as written; N and C are the ends. Square brackets hold non-standard residues; d marks the D form. Peptide text beside a SMILES is read from it. * marks the point of attachment. X1 = CC[C@H](C)CCCCC(=O)*; Dab = NCC[C@H](N)C(=O)O
Experiments:
Escherichia coli [1] = experiment: Antibacterial activity against Escherichia coli ATCC 25922 assessed as growth inhibition measured after 18 to 24 hrs by CLSI based broth microdilution method; type: functional; details: time 18-24 hrs
Cell membrane [2] = experiment: Induction of cell membrane disruption in Escherichia coli ATCC 25922 assessed as cell morphological damage measured after 30 mins by […] electron microscope analysis; type: subcellular
[3] = Acute toxicity in BALB/c mouse assessed as pathological changes in liver at 20 to 80 mg/kg, ip administered as single dose measured for 7 days by H and E staining method; type: organism-based; details: in vivo, 168 h, dose 20-80 mg/kg, time 7 day
Escherichia coli [4] = experiment: Antibacterial activity against rifampin resistant Escherichia coli ATCC 25922 assessed as fractional inhibitory concentration index in presence of rifampin by checkerboard assay; type: functional
Cell membrane [5] = experiment: Induction of cell membrane disruption in Staphylococcus aureus ATCC 25923 assessed as increase in PI uptake measured after 30 to 120 mins by propidium iodide staining based FACS flow cytometry analysis (reference value: 15%); type: subcellular; details: time 30-120 min
Escherichia coli [6] = experiment: Antibacterial activity against rifampin resistant Escherichia coli ATCC 25922 assessed as fractional inhibitory concentration index in presence of gentamicin by checkerboard assay; type: functional
Cell membrane [7] = experiment: Induction of cell membrane disruption in Escherichia coli ATCC 25922 assessed as cell morphological damage measured after 120 mins by […] electron microscope analysis; type: subcellular
Erythrocyte = experiment: Hemolytic activity against mouse RBC measured after 1 hrs; type: toxicity, cell-based
Escherichia coli [8] = experiment: Antibacterial activity against gentamicin resistant Escherichia coli ATCC 25922 assessed as fractional inhibitory concentration index in presence of rifampin by checkerboard assay; type: functional
Staphylococcus aureus [9] = experiment: Antibacterial activity against gentamicin resistant Staphylococcus aureus ATCC 25923 assessed as fractional inhibitory concentration index in presence of kanamycin by checkerboard assay; type: functional
Staphylococcus aureus [10] = experiment: Antibacterial activity against gentamicin resistant Staphylococcus aureus ATCC 25923 assessed as fractional inhibitory concentration index in presence of gentamicin by checkerboard assay; type: functional
Escherichia coli [11] = experiment: Antibacterial activity against Escherichia coli ATCC 25922 assessed as fractional inhibitory concentration index in presence of rifampin by checkerboard assay; type: functional
Staphylococcus aureus [12] = experiment: Induction of cell membrane damage in Staphylococcus aureus ATCC 25923 assessed as increase in nucleic acid leakage by microplate reader assay; type: functional, organism-based; details: time 0-6 hrs, TDE = time-dependent effect
Escherichia coli [13] = experiment: Antibacterial activity against Escherichia coli ATCC 25922 assessed as fractional inhibitory concentration index in presence of vancomycin by checkerboard assay; type: functional
Staphylococcus aureus [14] = experiment: Antibacterial activity against gentamicin resistant Staphylococcus aureus ATCC 25923 assessed as fractional inhibitory concentration index in presence of rifampin by checkerboard assay; type: functional
Cell membrane [15] = experiment: Induction of cell membrane disruption in Staphylococcus aureus ATCC 25923 assessed as cell morphological damage measured after 120 mins by […] electron microscope analysis; type: subcellular
Staphylococcus aureus [16] = experiment: Antibacterial activity against Staphylococcus aureus ATCC 25923 assessed as growth inhibition measured after 18 to 24 hrs by CLSI based broth microdilution method; type: functional; details: time 18-24 hrs
Staphylococcus aureus [17] = experiment: Antibacterial activity against rifampin resistant Staphylococcus aureus ATCC 25923 assessed as fractional inhibitory concentration index in presence of rifampin by checkerboard assay; type: functional
[18] = Retention time of the compound by RP-HPLC analysis; type: physicochemical
Staphylococcus aureus [19] = experiment: In vivo antimicrobial activity against Staphylococcus aureus ATCC 25923 infected in BALB/C mouse pulmonary infection model at 5 to 10 mg/kg, ip; type: functional, organism-based; details: dose 5-10 mg/kg
Staphylococcus aureus [20] = experiment: Antibacterial activity against Staphylococcus aureus ATCC 25923 assessed as fractional inhibitory concentration index in presence of gentamicin by checkerboard assay; type: functional
Staphylococcus aureus [21] = experiment: Antibacterial activity against rifampin resistant Staphylococcus aureus ATCC 25923 assessed as fractional inhibitory concentration index in presence of kanamycin by checkerboard assay; type: functional
Escherichia coli [22] = experiment: Antibacterial activity against Escherichia coli ATCC 25922 assessed as fractional inhibitory concentration index in presence of gentamicin by checkerboard assay; type: functional
[23] = Acute toxicity in BALB/c mouse assessed as mortality at 80 mg/kg, ip administered as single dose measured for 7 days; type: organism-based; details: in vivo, time 7 day
Cell membrane [24] = experiment: Induction of outer membrane permeabilization to NPN in Escherichia coli ATCC 25922 cells assessed as increase in fluorescence intensity by NPN fluorescent dye based microplate reader assay; type: subcellular
Escherichia coli [25] = experiment: Antibacterial activity against Escherichia coli ATCC 25922 assessed as resistance development measured after 15 passages at sub-MIC concentration by resistance development assay; type: functional, organism-based
Escherichia coli [26] = experiment: Antibacterial activity against gentamicin resistant Escherichia coli ATCC 25922 assessed as fractional inhibitory concentration index in presence of vancomycin by checkerboard assay; type: functional
[27] = Stability of the compound in mouse serum at 10 mM assessed as half life by RP-HPLC analysis; type: ADME, cell-free
Staphylococcus aureus [28] = experiment: Antibacterial activity against rifampin resistant Staphylococcus aureus ATCC 25923 assessed as fractional inhibitory concentration index in presence of vancomycin by checkerboard assay; type: functional
Escherichia coli [29] = experiment: Antibacterial activity against gentamicin resistant Escherichia coli ATCC 25922 assessed as fractional inhibitory concentration index in presence of kanamycin by checkerboard assay; type: functional
Escherichia coli [30] = experiment: Induction of cell membrane damage in Escherichia coli ATCC 25922 assessed as increase in nucleic acid leakage by microplate reader assay; type: functional, organism-based; details: time 0-6 hrs, TDE = time-dependent effect
Cell membrane [31] = experiment: Induction of outer membrane permeabilization to NPN in Staphylococcus aureus ATCC 25923 cells assessed as increase in fluorescence intensity measured within 1 min by NPN fluorescent dye based microplate reader assay; type: subcellular
Escherichia coli [32] = experiment: Antibacterial activity against Escherichia coli ATCC 25922 assessed as fractional inhibitory concentration index in presence of kanamycin by checkerboard assay; type: functional
Staphylococcus aureus [33] = experiment: Antibacterial activity against Staphylococcus aureus ATCC 25923 assessed as fractional inhibitory concentration index in presence of kanamycin by checkerboard assay; type: functional
Bacillus subtilis = experiment: Antibacterial activity against Bacillus subtilis ATCC 23857 assessed as growth inhibition measured after 18 to 24 hrs by CLSI based broth microdilution method; type: functional; details: time 18-24 hrs
Cell membrane [34] = experiment: Induction of inner membrane permeabilization in Escherichia coli ML-35 ATCC 43837 assessed as increase in absorbance at 1 to 4 times MIC measured at 420 nm in presence of ONPG by microplate reader assay; type: subcellular; details: DDE = dose-dependent effect
Klebsiella pneumoniae = experiment: Antibacterial activity against Klebsiella pneumoniae ATCC 700603 assessed as growth inhibition measured after 18 to 24 hrs by CLSI based broth microdilution method; type: functional; details: time 18-24 hrs
Cell membrane [35] = experiment: Induction of cytoplasmic membrane depolarization in Escherichia coli ATCC 25922 assessed as increase in fluorescence intensity measured within 1 min by DiSC3-5 dye based fluorescence method; type: subcellular
Staphylococcus aureus [36] = experiment: Antibacterial activity against rifampin resistant Staphylococcus aureus ATCC 25923 assessed as fractional inhibitory concentration index in presence of gentamicin by checkerboard assay; type: functional
Staphylococcus aureus [37] = experiment: Antibacterial activity against Staphylococcus aureus ATCC 25923 assessed as resistance development measured after 15 passages at sub-MIC concentration by resistance development assay; type: functional, organism-based

Compound | MIC (Escherichia coli [1]) [µM] | Activity (Cell membrane [2]) | Activity [3] | fractional inhibitory concentration index (FICI) (Escherichia coli [4]) | Activity (Cell membrane [5]) [%] | fractional inhibitory concentration index (FICI) (Escherichia coli [6]) | Activity (Cell membrane [7]) | MHC10 (Erythrocyte) [µM] | fractional inhibitory concentration index (FICI) (Escherichia coli [8]) | fractional inhibitory concentration index (FICI) (Staphylococcus aureus [9]) | fractional inhibitory concentration index (FICI) (Staphylococcus aureus [10]) | fractional inhibitory concentration index (FICI) (Escherichia coli [11]) | Activity (Staphylococcus aureus [12]) | fractional inhibitory concentration index (FICI) (Escherichia coli [13]) | fractional inhibitory concentration index (FICI) (Staphylococcus aureus [14]) | Activity (Cell membrane [15]) | MIC (Staphylococcus aureus [16]) [µM] | fractional inhibitory concentration index (FICI) (Staphylococcus aureus [17]) | Retention_time [18] [min] | Activity (Staphylococcus aureus [19]) | also measured
CC[C@H](C)CCCCC(=O)N[C@@H](CCN)C(=O)N[C@H](C(=O)N[C@@H](CCN)C(=O)N[C@H]1CCNC(=O)[C@H]([C@@H](C)O)NC(=O)[C@H](CCN)NC(=O)[C@H](CCN)NC(=O)[C@H](CC(C)C)NC(=O)[C@@H](Cc2ccccc2)NC(=O)[C@H](CCN)NC1=O)[C@@H](C)O (X1-[Dab]T[Dab][Dab][Dab][dF]L[Dab][Dab]T; lactam 4-C) | 4 (≈ 4.81 µg/mL) | Active | Non-Toxic | 0.5625 | 45.8 | 0.375 | Active | > 256 | 0.375 | 0.625 | 0.5 | 0.1875 | Tde | 0.375 | 0.5625 | Active | 16 (≈ 19.3 µg/mL) | 1 | 13.125 | Active | fractional inhibitory concentration index (FICI) (Staphylococcus aureus [20]): 0.75; fractional inhibitory concentration index (FICI) (Staphylococcus aureus [21]): 0.625; fractional inhibitory concentration index (FICI) (Escherichia coli [22]): 0.375; Activity ([23]; ip, 80 mg/kg, 168 h): Toxic; Activity (Cell membrane [24]): Active; Activity (Escherichia coli [25]): Active; fractional inhibitory concentration index (FICI) (Escherichia coli [26]): 0.3125; half-life at 10000 µM [27]: 12.5 h; fractional inhibitory concentration index (FICI) (Staphylococcus aureus [28]): 1; fractional inhibitory concentration index (FICI) (Escherichia coli [29]): 0.375; Activity (Escherichia coli [30]): Tde; Activity (Cell membrane [31]): Active; fractional inhibitory concentration index (FICI) (Escherichia coli [32]): 0.375; fractional inhibitory concentration index (FICI) (Staphylococcus aureus [33]): 0.75; MIC (Bacillus subtilis): 4 µM (≈ 4.81 µg/mL); Activity (Cell membrane [34]): Dde; MIC (Klebsiella pneumoniae): 4 µM (≈ 4.81 µg/mL); Activity (Cell membrane [35]): Active; fractional inhibitory concentration index (FICI) (Staphylococcus aureus [36]): 0.375; Activity (Staphylococcus aureus [37]): Active
CC[C@H](C)[C@H](NC(=O)[C@@H]1CCCN1C(=O)[C@H](CC(C)C)NC(=O)[C@@H](N)Cc1ccccc1)C(=O)N[C@H](C(=O)N[C@@H](C)C(=O)N[C@@H](CCCCN)C(=O)N[C@@H](CC(C)C)C(=O)N[C@@H](CC(C)C)C(=O)N[C@@H](CO)C(=O)NCC(=O)N[C@@H](CC(C)C)C(=O)N[C@@H](CC(C)C)C(N)=O)C(C)C (H-FLPIVAKLLSGLL-NH2) | 32 (≈ 44.2 µg/mL) | Active | Non-Toxic | 1 | 24.1 | 0.625 | Active | 12.53 | 0.625 | 0.75 | 0.75 | 1.25 | Tde | 0.625 | 0.75 | Active | 4 (≈ 5.53 µg/mL) | 1 | 19.445 | Active | fractional inhibitory concentration index (FICI) (Staphylococcus aureus [20]): 1; fractional inhibitory concentration index (FICI) (Staphylococcus aureus [21]): 0.5625; fractional inhibitory concentration index (FICI) (Escherichia coli [22]): 1; mortality at 168 h ([23]; BALB/c, read-out: Activity): 100%; Activity (Cell membrane [24]): Active; Activity (Escherichia coli [25]): Active; fractional inhibitory concentration index (FICI) (Escherichia coli [26]): 0.75; half-life at 10000 µM [27]: 5.55 h; fractional inhibitory concentration index (FICI) (Staphylococcus aureus [28]): 0.75; fractional inhibitory concentration index (FICI) (Escherichia coli [29]): 1; Activity (Escherichia coli [30]): Tde; Activity (Cell membrane [31]): Active; fractional inhibitory concentration index (FICI) (Escherichia coli [32]): 1.125; fractional inhibitory concentration index (FICI) (Staphylococcus aureus [33]): 0.75; MIC (Bacillus subtilis): 4 µM (≈ 5.53 µg/mL); Activity (Cell membrane [34]): Dde; MIC (Klebsiella pneumoniae): > 128 µM; Activity (Cell membrane [35]): Active; fractional inhibitory concentration index (FICI) (Staphylococcus aureus [36]): 0.5625; Activity (Staphylococcus aureus [37]): Active

Reference: ChEMBL document CHEMBL5108051, “Improving the Antimicrobial Performance of Amphiphilic Cationic Antimicrobial Peptides Using Glutamic Acid Full-Scan and Positive Charge Compensation Strategies” (J Med Chem, 2022)
